Source: US20260365633A1, “Novel PEM Structures for SBX” (Roche Sequencing Solutions, Inc., priority 2023, published 2026)

Target: T1, C4760 DNA polymerase (a variant of DPO4) (Saccharolobus solfataricus, UniProt Q97W02, A155G/A42V/D156R/D292Y/D294N/E291S/E324K/E325K/E327K/E63R/E79L/G187P/G299W/I153V/I189F/I248T/I295S/K152A/K317Q/K321Q/K56Y/K78D/L293W/M76W/N188Y/P184Q/Q82W/Q83G/R300S/S297Y/S86E/T290K/T301W/V289W/V296Q)
T1 construct: Eco or Kod SSB in reaction as additive
T1 sequence (Q97W02 1-340 A155G/A42V/D156R/D292Y/D294N/E291S/E324K/E325K/E327K/E63R/E79L/G187P/G299W/I153V/I189F/I248T/I295S/K152A/K317Q/K321Q/K56Y/K78D/L293W/M76W/N188Y/P184Q/Q82W/Q83G/R300S/S297Y/S86E/T290K/T301W/V289W/V296Q): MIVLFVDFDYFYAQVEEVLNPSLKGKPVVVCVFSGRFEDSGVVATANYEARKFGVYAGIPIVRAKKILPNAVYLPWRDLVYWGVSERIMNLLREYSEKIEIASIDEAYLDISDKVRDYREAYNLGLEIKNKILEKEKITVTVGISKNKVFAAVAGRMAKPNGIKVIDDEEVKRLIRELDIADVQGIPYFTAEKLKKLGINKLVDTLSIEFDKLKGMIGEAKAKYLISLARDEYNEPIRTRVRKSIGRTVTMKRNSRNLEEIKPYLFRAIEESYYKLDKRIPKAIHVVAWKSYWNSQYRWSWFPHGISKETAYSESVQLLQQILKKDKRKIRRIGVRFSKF
Assay: Primer extension on 45mer RNA template (HIV2) with C4760 polymerase, gel
Format: biochemical, Sulfolobus solfataricus
Settings: 2 Mm PEM, 45mer RNA template derived from HIV2, Kod SSB, 30 minutes at 37 °C
Protocol: To begin to investigate the potential of PEMs to enhance diverse polymerase reactions, the ability of PEMS to enable DNA polymerase to utilize RNA as a template was tested. An initial screen of several compounds set forth in Table 1 was conducted using a 45mer RNA template derived from the HIV2 genome sequence. Primer extension reactions included the following reagents: 50 Mm TrisCl, 200 Mm NH4OAc, 20% PEG8K, 5% NMS, 0.6 nmol PP-60.20, 0.6 Mm MnCl2, 2 μg Kod single-strand binding protein (SSB), 1 M urea, 50 pmol each XNTP, 0.5 pmol template, 0.5 pmol [COMPOUND LEFT OUT] primer, 1.2 μg purified recombinant C4760 DNA polymerase (a variant of DPO4, see SEQ ID NO: 2), and 2 Mm PEM. 10 μL primer extension reactions were run for 30 minutes at 37 °C and reaction products were analyzed by gel electrophoresis.

SMILES	PEM activity on RNA template
CCN(CC)C(=O)c1cc(-c2cn(-c3ccc(C(=O)O)c(O)c3)nn2)nc(-c2cn(-c3ccc(C(=O)O)c(O)c3)nn2)c1 [Compound 49, 4,4′-((4-(diethylcarbamoyl)pyridine-2,6-diyl)bis(1H-1,2,3-triazole-4,1-diyl))bis(2-hydroxybenzoic acid)]	display PEM activity on an RNA template
CCNC(=O)c1cc(-n2cc(-c3ccc(C(=O)O)c(C(F)(F)F)c3)nn2)cc(-n2cc(-c3ccc(C(=O)O)c(C(F)(F)F)c3)nn2)c1 [Compound 116, 4,4′-((5-(ethylcarbamoyl)-1,3-phenylene)bis(1H-1,2,3-triazole-1,4-diyl))bis(2-(trifluoromethyl)benzoic acid)]	display PEM activity on an RNA template
CCNC(=O)c1cc(-c2cn(-c3ccc(C(=O)NCC(=O)O)c(C(F)(F)F)c3)nn2)nc(-c2cn(-c3ccc(C(=O)NCC(=O)O)c(C(F)(F)F)c3)nn2)c1 [Compound 110, 2,2′-((4,4′-((4-(ethylcarbamoyl)pyridine-2,6-diyl)bis(1H-1,2,3-triazole-4,1-diyl))bis(2-(trifluoromethyl)benzoyl))bis(azanediyl))diacetic acid]	display PEM activity on an RNA template
CCNC(=O)c1cc(-c2cn(-c3ccc(C(=O)O)c(C(F)(F)F)c3)nn2)nc(-c2cn(-c3ccc(C(=O)O)c(C(F)(F)F)c3)nn2)c1 [Compound 73, 4,4′-((4-(ethylcarbamoyl)pyridine-2,6-diyl)bis(1H-1,2,3-triazole-4,1-diyl))bis(2-(trifluoromethyl)benzoic acid)]	display PEM activity on an RNA template
CCNC(=O)c1cc(-c2cn(-c3ccc(C(=O)O)c([N+](=O)[O-])c3)nn2)nc(-c2cn(-c3ccc(C(=O)O)c([N+](=O)[O-])c3)nn2)c1 [Compound 106, 4,4′-((4-(ethylcarbamoyl)pyridine-2,6-diyl)bis(1H-1,2,3-triazole-4,1-diyl))bis(2-nitrobenzoic acid)]	display PEM activity on an RNA template
CCNC(=O)c1cc(-c2cn(-c3ccc(C(=O)O)c(F)c3)nn2)nc(-c2cn(-c3ccc(C(=O)O)c(F)c3)nn2)c1 [Compound 76, 4,4′-((4-(ethylcarbamoyl)pyridine-2,6-diyl)bis(1H-1,2,3-triazole-4,1-diyl))bis(2-fluorobenzoic acid)]	display PEM activity on an RNA template
CCNC(=O)c1cc(-c2cn(-c3cc(C(=O)O)cc(C(F)(F)F)c3)nn2)nc(-c2cn(-c3cc(C(=O)O)cc(C(F)(F)F)c3)nn2)c1 [Compound 93, 5,5′-((4-(ethylcarbamoyl)pyridine-2,6-diyl)bis(1H-1,2,3-triazole-4,1-diyl))bis(3-(trifluoromethyl)benzoic acid)]	display PEM activity on an RNA template
CCNC(=O)c1cc(-c2cn(-c3ccc(C(F)(F)F)c(C(=O)O)c3)nn2)nc(-c2cn(-c3ccc(C(F)(F)F)c(C(=O)O)c3)nn2)c1 [Compound 75, 5,5′-((4-(ethylcarbamoyl)pyridine-2,6-diyl)bis(1H-1,2,3-triazole-4,1-diyl))bis(2-(trifluoromethyl)benzoic acid)]	display PEM activity on an RNA template
O=C(O)c1ccc(-n2cc(-c3cc(C(=O)N4CCOCC4)cc(-c4cn(-c5ccc(C(=O)O)c(O)c5)nn4)n3)nn2)cc1O [Compound 51, 4,4′-((4-(morpholine-4-carbonyl)pyridine-2,6-diyl)bis(1H-1,2,3-triazole-4,1-diyl))bis(2-hydroxybenzoic acid)]	display PEM activity on an RNA template
O=C(O)c1ccc(-n2cc(-c3ccc(-c4cn(-c5ccc(C(=O)O)c(C(F)(F)F)c5)nn4)o3)nn2)cc1C(F)(F)F [Compound 118, 4,4′-(furan-2,5-diylbis(1H-1,2,3-triazole-4,1-diyl))bis(2-(trifluoromethyl)benzoic acid)]	display PEM activity on an RNA template
